Reference: patent US20200347043A1, “MODULATORS OF THE INTEGRATED STRESS PATHWAY” (Calico Life Sciences LLC, priority 2019, published 2020)

The compounds below were run on HEK293T cells carrying the ATF4 luciferase reporter (assay: ATF4-Luc assay (in vitro model of VWMD)). Conditions: Homo sapiens, HEK-293T, 1 μg/mL tunicamycin, 7 hours, One Glo luminescence.
Type: cell-based, human
Experimental: In order to test exemplary compounds of the invention in a cellular context, a stable VWMD cell line was first constructed. The ATF4 reporter was prepared by fusing the human full-length ATF4 5′-UTR (NCBI Accession No. BC022088.2) in front of the firefly luciferase (FLuc) coding sequence lacking the initiator methionine as described in Sidrauski et al (eLife 2013). The construct was used to produce recombinant retroviruses using standard methods and the resulting viral supernatant was used to transduce HEK293T cells, which were then subsequently selected with puromycin to generate a stable cell line.
HEK293T cells carrying the ATF4 luciferase reporter were plated on polylysine coated 384-well plates (Greiner Bio-one) at 30,000 cells per well. Cells were treated the next day with 1 μg/mL tunicamycin and 200 nM of a compound of Formula (I) for 7 hours. Luminescence was measured using One Glo (Promega) as specified by the manufacturer. Cells were maintained in DMEM with L-glutamine supplemented with 10% heat-inactivated FBS (Gibco) and Antibiotic-Antimycotic solution (Gibco).
Table 4 below summarizes the EC50 data obtained using the ATF4-Luc assay for exemplary compounds of the invention.

Compound | EC50
O=C(CO[C@H]1C[C@@H](OC(F)(F)F)C1)NC12CCC(NC(=O)COc3ccc(Cl)c(F)c3)(CC1)[C@@H](O)C2 [Compound 112, 2-(4-chloro-3-fluorophenoxy)-N-[(2S)-2-hydroxy-4-(2-{[(1s,3R)-3-(trifluoromethoxy)cyclobutyl]oxy}acetamido)bicyclo[2.2.2]octan-1-yl]acetamide] | < 0.01 µM
O=C(CO[C@H]1C[C@@H](OC(F)(F)F)C1)NC12CC(NC(=O)C3CC(=O)c4cc(Cl)ccc4O3)(C1)C2 (stereo partly shown) [Compound 113, 6-chloro-4-oxo-N-[3-(2-{[(1s,3s)-3-(trifluoromethoxy)cyclobutyl]oxy}acetamido)bicyclo[1.1.1]pentan-1-yl]-3,4-dihydro-2H-1-benzopyran-2-carboxamide] | 0.01 to 0.05 µM
O=C(CO[C@H]1C[C@@H](OC(F)(F)F)C1)NC12CCC(NC(=O)[C@H]3CC(=O)c4cc(Cl)ccc4O3)(CC1)C[C@@H]2O [Compound 115, (2R)-6-chloro-N-[(3S)-3-hydroxy-4-(2-{[(1s,3R)-3-(trifluoromethoxy)cyclobutyl]oxy}acetamido)bicyclo[2.2.2]octan-1-yl]-4-oxo-3,4-dihydro-2H-1-benzopyran-2-carboxamide] | < 0.01 µM
O=C(COc1ccc(Cl)cc1)NC12CCC(NC(=O)CO[C@H]3C[C@@H](OC(F)(F)F)C3)(CC1)CC2 [Compound 116, 2-(4-chlorophenoxy)-N-[4-(2-{[(1s,3s)-3-(trifluoromethoxy)cyclobutyl]oxy}acetamido)bicyclo[2.2.2]octan-1-yl]acetamide] | < 0.01 µM
O=C(CO[C@H]1C[C@@H](OC(F)(F)F)C1)NC12CCC(NC(=O)[C@H]3C[C@@H](O)c4cc(Cl)ccc4O3)(CC1)C[C@@H]2O [Compound 117, (2R,4R)-6-chloro-4-hydroxy-N-[(3S)-3-hydroxy-4-(2-{[(1s,3R)-3-(trifluoromethoxy)cyclobutyl]oxy}acetamido)bicyclo[2.2.2]octan-1-yl]-3,4-dihydro-2H-1-benzopyran-2-carboxamide] | < 0.01 µM
O=C(COc1ccc(Cl)c(F)c1)NC12CC(NC(=O)[C@H]3C[C@@H](OC(F)(F)F)C3)(C1)C2 [Compound 118, (1s,3s)-N-{3-[2-(4-chloro-3-fluorophenoxy)acetamido]bicyclo[1.1.1]pentan-1-yl}-3-(trifluoromethoxy)cyclobutane-1-carboxamide] | 0.5 to 2 µM
O=C(NC12CC(C(=O)NCc3ccc(C(F)(F)F)cn3)(C1)C2)[C@H]1C[C@@H](O)c2cc(Cl)ccc2O1 [Compound 119, (2R,4R)-6-chloro-4-hydroxy-N-[3-({[5-(trifluoromethyl)pyridin-2-yl]methyl}carbamoyl)bicyclo[1.1.1]pentan-1-yl]-3,4-dihydro-2H-1-benzopyran-2-carboxamide] | 0.01 to 0.05 µM
O=C(COc1ccc(Cl)c(F)c1)N[C@@H]1CC[C@@H](C(=O)N2CC(Oc3ccc(Cl)cc3)C2)OC1 [Compound 120, 2-(4-chloro-3-fluorophenoxy)-N-{(3R,6S)-6-[3-(4-chlorophenoxy)azetidine-1-carbonyl]oxan-3-yl}acetamide] | 0.01 to 0.05 µM
O=C(COc1ccc(Cl)c(F)c1)NC12CCC(c3nnc([C@H]4C[C@@H](OC(F)(F)F)C4)o3)(CC1)CC2O (stereo partly shown) [Compound 124, 2-(4-chloro-3-fluorophenoxy)-N-(2-hydroxy-4-{5-[(1s,3s)-3-(trifluoromethoxy)cyclobutyl]-1,3,4-oxadiazol-2-yl}bicyclo[2.2.2]octan-1-yl)acetamide] | 0.01 to 0.05 µM
O=C(N[C@H]1C[C@H]2CC[C@@H](C1)N2CCCOc1ccc(Cl)cc1)[C@H]1C[C@@H](O)c2cc(Cl)ccc2O1 [Compound 125, (2R,4R)-6-chloro-N-{(1R,3r,5S)-8-[3-(4-chlorophenoxy)propyl]-8-azabicyclo[3.2.1]octan-3-yl}-4-hydroxy-3,4-dihydro-2H-1-benzopyran-2-carboxamide] | 0.05 to 0.25 µM
O=C(NC12CC(C(=O)NCc3nc4cc(F)c(F)cc4[nH]3)(C1)C2)[C@H]1C[C@@H](O)c2cc(Cl)ccc2O1 [Compound 127, (2R,4R)-6-chloro-N-(3-{[(5,6-difluoro-1H-benzimidazol-2-yl)methyl]carbamoyl}bicyclo[1.1.1]pentan-1-yl)-4-hydroxy-3,4-dihydro-2H-1-benzopyran-2-carboxamide] | 0.01 to 0.05 µM
O=C(NC12CC(NC(=O)[C@H]3C[C@@H](OC(F)(F)F)C3)(C1)C2)[C@H]1C[C@@H](O)c2cc(Cl)ccc2O1 [Compound 128, (2R,4R)-6-chloro-4-hydroxy-N-(3-{[(1s,3S)-3-(trifluoromethoxy)cyclobutane-1-carbonyl]amino}bicyclo[1.1.1]pentan-1-yl)-3,4-dihydro-2H-1-benzopyran-2-carboxamide] | 0.5 to 2 µM
O=C(COc1ccc(Cl)c(F)c1)NC12CC(C(=O)NCC3CCc4cc(Cl)ccc4O3)(C1)C2 (stereo not shown) [Compound 129, N-[(6-chloro-3,4-dihydro-2H-1-benzopyran-2-yl)methyl]-3-[2-(4-chloro-3-fluorophenoxy)acetamido]bicyclo[1.1.1]pentane-1-carboxamide] | 0.01 to 0.05 µM
O=C(COc1ccc(Cl)c(F)c1)N[C@H]1CC[C@H](NC(=O)C2CC(=O)c3cc(Cl)ccc3O2)CC1 (stereo partly shown) [Compound 130, 6-chloro-N-{(1r,4r)-4-[2-(4-chloro-3-fluorophenoxy)acetamido]cyclohexyl}-4-oxo-3,4-dihydro-2H-1-benzopyran-2-carboxamide] | 0.25 to 0.5 µM
O=C1C[C@H](C(=O)NC23CC(C(=O)NCc4ccc(C(F)(F)F)cn4)(C2)C3)Oc2ccc(Cl)cc21 [Compound 132, (2R)-6-chloro-4-oxo-N-[3-({[5-(trifluoromethyl)pyridin-2-yl]methyl}carbamoyl)bicyclo[1.1.1]pentan-1-yl]-3,4-dihydro-2H-1-benzopyran-2-carboxamide] | 0.05 to 0.25 µM
O=C1CC(C(=O)NC23CC(C(=O)NCc4ccc(C(F)(F)F)cn4)(C2)C3)Oc2ccc(Cl)cc21 (stereo not shown) [Compound 134, 6-chloro-4-oxo-N-[3-({[5-(trifluoromethyl)pyridin-2-yl]methyl}carbamoyl)bicyclo[1.1.1]pentan-1-yl]-3,4-dihydro-2H-1-benzopyran-2-carboxamide] | 0.25 to 0.5 µM
O=C1C[C@H](C(=O)NC23CC(C(=O)NCc4nc5cc(F)c(F)cc5[nH]4)(C2)C3)Oc2ccc(Cl)cc21 [Compound 135, (2R)-6-chloro-N-(3-{[(5,6-difluoro-1H-benzimidazol-2-yl)methyl]carbamoyl}bicyclo[1.1.1]pentan-1-yl)-4-oxo-3,4-dihydro-2H-1-benzopyran-2-carboxamide] | 0.05 to 0.25 µM
O=C1CC(C(=O)N[C@@H]2CC[C@@H](C(=O)NCc3ccc(C(F)(F)F)cc3)OC2)Oc2ccc(Cl)cc21 (stereo partly drawn) [Compound 137, 6-chloro-4-oxo-N-[(3R,6S)-6-({[4-(trifluoromethyl)phenyl]methyl}carbamoyl)oxan-3-yl]-3,4-dihydro-2H-1-benzopyran-2-carboxamide] | 0.05 to 0.25 µM
O=C1CC(C(=O)N[C@H]2CC[C@H](C(=O)NCc3nc4ccc(Cl)cc4[nH]3)CC2)Oc2ccc(Cl)cc21 (stereo partly shown) [Compound 138, 6-chloro-N-[(1r,4r)-4-{[(6-chloro-1H-benzimidazol-2-yl)methyl]carbamoyl}cyclohexyl]-4-oxo-3,4-dihydro-2H-1-benzopyran-2-carboxamide] | 0.05 to 0.25 µM
O=C1CC(C(=O)N[C@@H]2CC[C@@H](C(=O)N3CC(Oc4ccc(Cl)cc4)C3)OC2)Oc2ccc(Cl)cc21 (stereo partly drawn) [Compound 139, 6-chloro-N-{(3R,6S)-6-[3-(4-chlorophenoxy)azetidine-1-carbonyl]oxan-3-yl}-4-oxo-3,4-dihydro-2H-1-benzopyran-2-carboxamide] | 0.5 to 2 µM
O=C1CC(C(=O)N[C@@H]2CC[C@@H](C(=O)NCc3cn4ccc(Cl)cc4n3)OC2)Oc2ccc(Cl)cc21 (stereo partly drawn) [Compound 140, 6-chloro-N-[(3R,6S)-6-{[(7-chloroimidazo[1,2-a]pyridin-2-yl)methyl]carbamoyl}oxan-3-yl]-4-oxo-3,4-dihydro-2H-1-benzopyran-2-carboxamide] | 0.05 to 0.25 µM
O=C(COc1ccc(Cl)c(F)c1)N[C@H]1CC[C@H](NC(=O)C2CC(O)c3cc(Cl)ccc3O2)CC1 (stereo partly shown) [Compound 141, 6-chloro-N-{(1r,4r)-4-[2-(4-chloro-3-fluorophenoxy)acetamido]cyclohexyl}-4-hydroxy-3,4-dihydro-2H-1-benzopyran-2-carboxamide] | 0.01 to 0.05 µM
Cc1cc(C)cc(OCC2CN(C34CC(NC(=O)[C@H]5C[C@@H](O)c6cc(Cl)ccc6O5)(C3)C4)C(=O)O2)c1 (stereo partly drawn) [Compound 142, (2R,4R)-6-chloro-N-(3-{5-[(3,5-dimethylphenoxy)methyl]-2-oxo-1,3-oxazolidin-3-yl}bicyclo[1.1.1]pentan-1-yl)-4-hydroxy-3,4-dihydro-2H-1-benzopyran-2-carboxamide] | > 2 µM
O=C(NC1CC2(C1)CN(C(=O)COc1ccc(Cl)c(F)c1)C2)[C@H]1C[C@@H](O)c2cc(Cl)ccc2O1 [Compound 143, (2R,4R)-6-chloro-N-{2-[(4-chloro-3-fluorophenoxy)acetyl]-2-azaspiro[3.3]heptan-6-yl}-4-hydroxy-3,4-dihydro-2H-1-benzopyran-2-carboxamide] | 0.05 to 0.25 µM
O=C(COc1ccc(Cl)c(F)c1)NC1CC2(C1)CN(C(=O)C1CC(=O)c3cc(Cl)ccc3O1)C2 (stereo not shown) [Compound 144, 2-(4-chloro-3-fluorophenoxy)-N-[2-(6-chloro-4-oxo-3,4-dihydro-2H-1-benzopyran-2-carbonyl)-2-azaspiro[3.3]heptan-6-yl]acetamide] | 0.05 to 0.25 µM
